Reference: PubChem BioAssay (NCI)
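Dose response: 5 concentrations. Exposure: 48 h. Format: 96-well plates. Endpoint: linear interpolation; highest concentration if not reached. At the GI50, growth is halved. TGI: concentration producing complete growth inhibition.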

Legend:
Assay in all cases: NCI tumour cell line growth inhibition, 48 h
SF-268 CNS = tested on: SF-268 CNS
ACHN renal = tested on: ACHN renal
NCI-H522 lung = tested on: NCI-H522 lung
UACC-62 melanoma = tested on: UACC-62 melanoma
KM12 colon = tested on: KM12 colon
EKVX NSCLC = tested on: EKVX NSCLC
IGROV1 ovarian = tested on: IGROV1 ovarian
A498 renal = tested on: A498 renal
K-562 leukemia = tested on: K-562 leukemia
SK-OV-3 ovarian = tested on: SK-OV-3 ovarian

| SMILES | TGI (SF-268 CNS) | TGI (ACHN renal) | TGI (NCI-H522 lung) | TGI (UACC-62 melanoma) | TGI (KM12 colon) | TGI (EKVX NSCLC) | TGI (IGROV1 ovarian) | TGI (A498 renal) | TGI (K-562 leukemia) | TGI (SK-OV-3 ovarian) | GI50 (SF-268 CNS) | GI50 (ACHN renal) | GI50 (NCI-H522 lung) | GI50 (UACC-62 melanoma) | GI50 (KM12 colon) | GI50 (EKVX NSCLC) | GI50 (IGROV1 ovarian) | GI50 (A498 renal) | GI50 (K-562 leukemia) | GI50 (SK-OV-3 ovarian) |
| --- | --- | --- | --- | --- | --- | --- | --- | --- | --- | --- | --- | --- | --- | --- | --- | --- | --- | --- | --- | --- |
| C[Si](C)(C)c1ccc(CC2(Cc3ccc([Si](C)(C)C)cc3)CCNC2)cc1 | 4.71 µM | 9.37 µM | 3.28 µM | 3.96 µM | 3.62 µM | 18.9 µM | 7.12 µM | 2.91 µM | 84.6 µM | 3.8 µM | – | – | – | – | – | – | – | – | – | – |
| Clc1ccc(Cc2nc3cc4ccccc4cc3[nH]2)cc1 | 75.7 µM | 57.7 µM | > 100 µM | > 100 µM | > 100 µM | > 100 µM | > 100 µM | > 100 µM | > 100 µM | 83.3 µM | 10.9 µM | 18.8 µM | 82 µM | 73.5 µM | 9.64 µM | 26.9 µM | 26 µM | 21.7 µM | 50.8 µM | 14.7 µM |
| CCOC(=O)CCCO | > 100 µM | > 100 µM | > 100 µM | > 100 µM | > 100 µM | > 100 µM | > 100 µM | > 100 µM | > 100 µM | > 100 µM | – | – | – | – | – | – | – | – | – | – |
| O=[n+]1c(CBr)c(CBr)n([O-])c2ccccc21 | 33.6 µM | 3.18 µM | 3.17 µM | 27.4 µM | 31.5 µM | 29 µM | 31 µM | > 100 µM | 17.2 µM | > 100 µM | 15.9 µM | 1.76 µM | 1.74 µM | 14.1 µM | 17.1 µM | 15.3 µM | 10.5 µM | 41.3 µM | 3.46 µM | 24.9 µM |
| Cc1c(N2C(=O)/C(=C\c3ccccc3O)N=C2c2ccccc2)c(=O)n(-c2ccccc2)n1C | > 100 µM | > 100 µM | > 100 µM | > 100 µM | > 100 µM | > 100 µM | > 100 µM | > 100 µM | > 100 µM | > 100 µM | 29.8 µM | 53.8 µM | 64 µM | 53.9 µM | 21 µM | 77 µM | 23.8 µM | > 100 µM | > 100 µM | 57.3 µM |
| O=C(Nc1ccccc1[N+](=O)[O-])c1ccccc1 | > 100 µM | > 100 µM | > 100 µM | > 100 µM | > 100 µM | > 100 µM | > 100 µM | > 100 µM | > 100 µM | > 100 µM | – | – | – | – | – | – | – | – | – | – |
| COc1ccc(/C=C(/C(=O)O)c2cc(OC)c(OC)c(OC)c2)cc1 | > 100 µM | > 100 µM | 36.6 µM | > 100 µM | > 100 µM | > 100 µM | > 100 µM | > 100 µM | > 100 µM | > 100 µM | – | – | – | – | – | – | – | – | – | – |
| COc1cc2c(c(O)c1C)C(=O)C(Cl)=CC2=O | 40 µM | 13.9 µM | 5.24 µM | 13.8 µM | 42.1 µM | 23.3 µM | 40.2 µM | 33.9 µM | 8.64 µM | > 65.6 µM | – | – | – | – | – | – | – | – | – | – |
| NC1(CCCCCCCCCCC(=O)O)CNCCNCCNCCNC1 | > 100 µM | > 100 µM | > 100 µM | > 100 µM | > 100 µM | > 100 µM | > 100 µM | 46.7 µM | > 100 µM | > 100 µM | – | – | – | – | – | – | – | – | – | – |
| COc1cccc(-c2nn(-c3ccccc3)cc2-c2ccnc(NCCCNS(=O)(=O)c3cccc(F)c3)c2)c1 | > 100 µM | > 100 µM | 21.2 µM | > 100 µM | > 100 µM | > 100 µM | > 100 µM | > 100 µM | > 100 µM | > 100 µM | 5.63 µM | 3.56 µM | 2.05 µM | 4.65 µM | 3.38 µM | 2.79 µM | 4.96 µM | 3.52 µM | 3.31 µM | 3.18 µM |
| N#Cc1nc(-c2ccc(F)cc2)oc1S(=O)(=O)N1CCOCC1 | 25.4 µM | 3.12 µM | 3.13 µM | 17.6 µM | 26.3 µM | 37 µM | 14.6 µM | 32 µM | 10.9 µM | 86.6 µM | 11 µM | 1.74 µM | 0.675 µM | 4.79 µM | 12 µM | 13.8 µM | 3.68 µM | 15.6 µM | 1.7 µM | 23.4 µM |
| O=C(O/N=C1/CCC/C1=C\c1ccccc1)c1ccc([N+](=O)[O-])cc1 | > 100 µM | > 100 µM | > 100 µM | > 100 µM | > 100 µM | > 100 µM | > 100 µM | > 100 µM | > 100 µM | > 100 µM | – | – | – | – | – | – | – | – | – | – |
| CN1CCCNCCN(CCc2ccccn2)CCCN(C)CC1 | > 100 µM | > 100 µM | > 100 µM | > 100 µM | > 100 µM | > 100 µM | > 100 µM | > 100 µM | > 66.1 µM | > 100 µM | – | – | – | – | – | – | – | – | – | – |
| O=C1CSC(N2CCN(c3cccc(Cl)c3)CC2)=N1 | > 100 µM | > 100 µM | > 100 µM | > 100 µM | > 100 µM | > 100 µM | > 100 µM | > 100 µM | > 100 µM | > 100 µM | > 100 µM | > 100 µM | > 100 µM | > 100 µM | > 100 µM | > 100 µM | > 100 µM | > 100 µM | > 100 µM | > 100 µM |
| Fc1ccc(-c2nn(-c3ccccc3)cc2-c2nc3ccccc3o2)cc1 | > 100 µM | > 100 µM | 16.8 µM | 19.6 µM | > 100 µM | 90.6 µM | 39.3 µM | 56.7 µM | > 100 µM | > 100 µM | 4.53 µM | 4.1 µM | 3.62 µM | 5.5 µM | 3.25 µM | 5.29 µM | 3.94 µM | 2.97 µM | 1.25 µM | 8.46 µM |
| CCOC(=O)c1cc(-c2ccc([N+](=O)[O-])cc2)n(-c2ccc(C(=O)O)c(O)c2)c1C | 19.6 µM | 9.38 µM | 23.9 µM | 15.4 µM | 11.7 µM | 18 µM | 19.2 µM | 21.9 µM | > 100 µM | 23 µM | 4.69 µM | 2.94 µM | 6.48 µM | 3.95 µM | 3.55 µM | 5.2 µM | 4.42 µM | 10.1 µM | 3.82 µM | 10.8 µM |
| CC1=C2[C@@H](CC1)[C@]1(C)O[C@@](C(C)C)(C[C@H]1OC(=O)[C@H](C)O)[C@H]2OC(=O)/C=C/c1ccccc1 | 23.1 µM | 13 µM | 29.1 µM | 27.4 µM | 33 µM | 21.7 µM | 49.8 µM | 0.702 µM | 49.8 µM | 38 µM | 2.13 µM | 0.145 µM | 13.3 µM | 12.2 µM | 14.8 µM | 6.19 µM | 19.2 µM | 0.236 µM | 12.5 µM | 15.3 µM |
